Key:
Format in all cases: cell-based, human
COLO 205 = assay: NCI-60 one-dose screen (colon cancer); settings: 10 µM single dose, 48 h
HCC-2998 [1] = assay: NCI-60 one-dose screen (colon cancer); settings: 10 µM single dose, 48 h
HCT-15 = assay: NCI-60 one-dose screen (colon cancer); settings: 10 µM single dose, 48 h
HT29 = assay: NCI-60 one-dose screen (colon cancer)
KM12 = assay: NCI-60 one-dose screen (colon cancer); settings: 10 µM single dose, 48 h
SW-620 [2] = assay: NCI-60 one-dose screen (colon cancer); settings: 10 µM single dose, 48 h
786-0 [3] = assay: NCI-60 one-dose screen (renal cancer); settings: 10 µM single dose
A498 [4] = assay: NCI-60 one-dose screen (renal cancer); settings: 10 µM single dose, 48 h
ACHN [5] = assay: NCI-60 one-dose screen (renal cancer); settings: 10 µM single dose, 48 h
SN12C = assay: NCI-60 one-dose screen (renal cancer); settings: 10 µM single dose, 48 h
TK-10 = assay: NCI-60 one-dose screen (renal cancer); settings: 10 µM single dose, 48 h
UO-31 = assay: NCI-60 one-dose screen (renal cancer); settings: 10 µM single dose, 48 h
DU-145 = assay: NCI-60 one-dose screen (prostate cancer); settings: 10 µM single dose, 48 h
PC-3 = assay: NCI-60 one-dose screen (prostate cancer); settings: 10 µM single dose
BT-549 = assay: NCI-60 one-dose screen (breast cancer); settings: 10 µM single dose, 48 h
HS 578T = assay: NCI-60 one-dose screen (breast cancer); settings: 10 µM single dose, 48 h
MCF7 = assay: NCI-60 one-dose screen (breast cancer); settings: 10 µM single dose, 48 h
MDA-MB-231/ATCC [6] = assay: NCI-60 one-dose screen (breast cancer); settings: 10 µM single dose, 48 h
MDA-MB-468 = assay: NCI-60 one-dose screen (breast cancer); settings: 10 µM single dose, 48 h
T-47D = assay: NCI-60 one-dose screen (breast cancer); settings: 10 µM single dose, 48 h
MOLT-4 = assay: NCI-60 five-dose assay (leukemia); settings: 48 h, SRB
SR = assay: NCI-60 five-dose assay (leukemia); settings: 48 h, SRB
HOP-62 = assay: NCI-60 five-dose assay (non-small cell lung cancer); settings: 48 h, SRB
HCC-2998 [7] = assay: NCI-60 five-dose assay (colon cancer); settings: 48 h, SRB
HCT-116 = assay: NCI-60 five-dose assay (colon cancer); settings: 48 h, SRB
SW-620 [8] = assay: NCI-60 five-dose assay (colon cancer); settings: 48 h, SRB
SF-539 = assay: NCI-60 five-dose assay (CNS cancer); settings: 48 h, SRB
LOX IMVI = assay: NCI-60 five-dose assay (melanoma); settings: 48 h, SRB
MALME-3M = assay: NCI-60 five-dose assay (melanoma); settings: 48 h, SRB
SK-MEL-2 = assay: NCI-60 five-dose assay (melanoma); settings: 48 h, SRB
OVCAR-3 = assay: NCI-60 five-dose assay (ovarian cancer); settings: 48 h, SRB
OVCAR-4 = assay: NCI-60 five-dose assay (ovarian cancer); settings: 48 h, SRB
OVCAR-5 = assay: NCI-60 five-dose assay (ovarian cancer); settings: 48 h, SRB
SK-OV-3 = assay: NCI-60 five-dose assay (ovarian cancer); settings: 48 h, SRB
786-0 [9] = assay: NCI-60 five-dose assay (renal cancer); settings: 48 h, SRB
A498 [10] = assay: NCI-60 five-dose assay (renal cancer); settings: 48 h, SRB
ACHN [11] = assay: NCI-60 five-dose assay (renal cancer); settings: 48 h, SRB
MDA-MB-231/ATCC [12] = assay: NCI-60 five-dose assay (breast cancer); settings: 48 h, SRB
[13] = Homo sapiens, read-out: LC50 (the source's name)

In the case of `CCOc1ccc(NC2=C(Cl)C(=O)c3nc(C)ccc3C2=O)cc1` [AQQ3], the “GP (growth percentage)” value (COLO 205) is reported as 98.22%, the “GP (growth percentage)” value (HCC-2998 [1]) is reported as −55.70% and the “GP (growth percentage)” value (HCT-15) is reported as −83.19%. For the same compound, the “GP (growth percentage)” value (HT29; 10 µM single dose, 48 h) was 15.90%, the inhibition at 10 µM (HT29; Homo sapiens, HT-29, 10 µM single dose) was 84.1% and the “GP (growth percentage)” value (KM12) was 57.40%. The “GP (growth percentage)” value (SW-620 [2]) was −55.33%, the “GP (growth percentage)” value (786-0 [3]; 48 h) was 8.39% and the inhibition at 10 µM (786-0 [3]; Homo sapiens) was 91.6%. For the same compound, the “GP (growth percentage)” value (A498 [4]) was 100.96%, the “GP (growth percentage)” value (ACHN [5]) was −98.42% and the “GP (growth percentage)” value (SN12C) was −57.33%. The “GP (growth percentage)” value (TK-10) was 121.08%, the “GP (growth percentage)” value (UO-31) was −65.05% and the “GP (growth percentage)” value (DU-145) was −92.73%. The “GP (growth percentage)” value (PC-3; 48 h) was 10.40%, the inhibition at 10 µM (PC-3; Homo sapiens) was 89.6% and the “GP (growth percentage)” value (BT-549) was 46.48%. The “GP (growth percentage)” value (HS 578T) was 48.97%, the “GP (growth percentage)” value (MCF7) was −66.97% and the “GP (growth percentage)” value (MDA-MB-231/ATCC [6]) was −71.74%. For the same compound, the “GP (growth percentage)” value (MDA-MB-468) was −95.15%, the “GP (growth percentage)” value (T-47D) was −43.85% and the TGI (MOLT-4) was greater than 100 µM. The GI50 (MOLT-4; Homo sapiens) was 2.49 µM, the LC50 (MOLT-4; Homo sapiens) was greater than 100 µM and the TGI (SR) was greater than 100 µM. The GI50 (SR; Homo sapiens) was 1.09 µM, the CC50 (SR; [13]) was greater than 100 µM and the TGI (HOP-62) was 3.23 µM. For the same compound, the GI50 (HOP-62; Homo sapiens) was 1.74 µM, the LC50 (concentration killing 50% of cells) (HOP-62; Homo sapiens) was 6.01 µM and the TGI (HCC-2998 [7]) was 3.25 µM. For the same compound, the GI50 (HCC-2998 [7]; Homo sapiens) was 1.76 µM, the LC50 (concentration killing 50% of cells) (HCC-2998 [7]; Homo sapiens) was 6 µM and the TGI (HCT-116) was 2.79 µM. For the same compound, the GI50 (HCT-116; Homo sapiens) was 1.32 µM, the LC50 (HCT-116; Homo sapiens) was 5.92 µM and the TGI (SW-620 [8]) was 3.51 µM. For the same compound, the GI50 (SW-620 [8]; Homo sapiens) was 1.83 µM, the LC50 (SW-620 [8]; Homo sapiens) was 6.73 µM and the TGI (SF-539) was 3.13 µM. For the same compound, the GI50 (SF-539; Homo sapiens) was 1.68 µM, the LC50 (SF-539; Homo sapiens) was 5.84 µM and the TGI (LOX IMVI) was 2.33 µM. The GI50 (LOX IMVI; Homo sapiens) was 1.06 µM, the LC50 (concentration killing 50% of cells) (LOX IMVI; Homo sapiens) was 5.14 µM and the TGI (MALME-3M) was 3.16 µM. The GI50 (MALME-3M; Homo sapiens) was 1.65 µM, the LC50 (MALME-3M; Homo sapiens) was 6.02 µM and the TGI (SK-MEL-2) was 3.03 µM. It also gave a GI50 (SK-MEL-2; Homo sapiens) of 1.63 µM, a CC50 (SK-MEL-2; [13]) of 5.64 µM and a TGI (OVCAR-3) of 2.19 µM. For the same compound, the GI50 (OVCAR-3; Homo sapiens) was 0.962 µM, the CC50 (OVCAR-3; [13]) was 4.87 µM and the TGI (OVCAR-4) was 2.37 µM. For the same compound, the GI50 (OVCAR-4; Homo sapiens) was 1.13 µM, the LC50 (concentration killing 50% of cells) (OVCAR-4; Homo sapiens) was 4.97 µM and the TGI (OVCAR-5) was 3.46 µM. It also gave a GI50 (OVCAR-5; Homo sapiens) of 1.92 µM, an LC50 (lethal concentration 50%) (OVCAR-5; Homo sapiens) of 6.25 µM and a TGI (SK-OV-3) of 30.1 µM. The GI50 (SK-OV-3; Homo sapiens) was 11 µM, the LC50 (50% net cell kill) (SK-OV-3; Homo sapiens) was 82.3 µM and the TGI (786-0 [9]) was 3.19 µM. It also gave a GI50 (786-0 [9]; Homo sapiens) of 1.72 µM, an LC50 (786-0 [9]; Homo sapiens) of 5.89 µM and a TGI (A498 [10]) of 5.52 µM. It also gave a GI50 (A498 [10]; Homo sapiens) of 1.56 µM, an LC50 (A498 [10]; Homo sapiens) of 24.4 µM and a TGI (ACHN [11]) of 2.92 µM. For the same compound, the GI50 (ACHN [11]; Homo sapiens) was 1.57 µM, the LC50 (ACHN [11]; Homo sapiens) was 5.45 µM and the TGI (MDA-MB-231/ATCC [12]) was 2.50 µM. The GI50 (MDA-MB-231/ATCC [12]; Homo sapiens) was 1.17 µM and the LC50 (concentration killing 50% of cells) (MDA-MB-231/ATCC [12]; Homo sapiens) was 5.34 µM.
